Data reported in ChEMBL document CHEMBL4382216, “Asymmetric synthesis and biological evaluation of imidazole- and oxazole-containing synthetic lipoxin A4 mimetics (sLXms)” (Eur J Med Chem, 2019).
The source made the active and inactive calls. No cut-off for these calls is given here.

What was measured:
[1] = target: T1, N-formyl peptide receptor 2 (Homo sapiens, UniProt P25090); assay: Agonist activity at ALX/FPR2 in human THP1 cells harboring NF-kB-Luc assessed as inhibition of LPS-induced NFkB signalling activation by measuring reduction in IL-1beta secretion pretreated for 30 mins followed by LPS stimulation for 24 hrs by electrochemiluminescence assay; format: cell-based
T1 sequence (P25090 whole entry): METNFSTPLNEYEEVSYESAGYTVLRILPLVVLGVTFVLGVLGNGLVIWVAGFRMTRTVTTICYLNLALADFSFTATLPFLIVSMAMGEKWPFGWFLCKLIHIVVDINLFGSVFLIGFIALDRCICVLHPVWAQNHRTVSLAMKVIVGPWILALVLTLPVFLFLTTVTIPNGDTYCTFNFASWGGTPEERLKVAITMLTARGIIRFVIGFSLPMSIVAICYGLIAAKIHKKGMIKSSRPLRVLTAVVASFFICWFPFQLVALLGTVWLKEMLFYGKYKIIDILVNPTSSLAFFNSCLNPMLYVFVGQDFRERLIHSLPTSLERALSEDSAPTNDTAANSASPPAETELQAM

Homo sapiens [2] = species on record: Homo sapiens; assay: Activation of Luc-fused NFkB (unknown origin) expressed in non-stimulated human THP1 cells assessed as relative luminescence unit at 10^-6 M after 24 hrs by luciferase reporter gene assay (reference value: 100%); format: cell-based
[3] = target: T1, N-formyl peptide receptor 2; assay: Agonist activity at ALX/FPR2 in human THP1 cells harboring NF-kB-Luc assessed as inhibition of LPS-induced NFkB signalling activation pretreated for 30 mins followed by LPS stimulation for 24 hrs by luciferase reporter gene assay; format: cell-based
[4] = target: T1, N-formyl peptide receptor 2; assay: Agonist activity at ALX/FPR2 in human THP1 cells harboring NF-kB-Luc assessed as inhibition of LPS-induced NFkB signalling activation by measuring reduction in IL-12p70 secretion pretreated for 30 mins followed by LPS stimulation for 24 hrs by electrochemiluminescence assay; format: cell-based
[5] = target: T1, N-formyl peptide receptor 2; assay: Agonist activity at ALX/FPR2 in human THP1 cells harboring NF-kB-Luc assessed as inhibition of LPS-induced NFkB signalling activation by measuring reduction in TNFalpha secretion pretreated for 30 mins followed by LPS stimulation for 24 hrs by electrochemiluminescence assay; format: cell-based
[6] = target: T1, N-formyl peptide receptor 2; assay: Agonist activity at ALX/FPR2 in human THP1 cells harboring NF-kB-Luc assessed as inhibition of LPS-induced NFkB signalling activation by measuring reduction in IFNgamma secretion pretreated for 30 mins followed by LPS stimulation for 24 hrs by electrochemiluminescence assay; format: cell-based
Homo sapiens [7] = species on record: Homo sapiens; assay: Activation of Luc-fused NFkB (unknown origin) expressed in non-stimulated human THP1 cells assessed as relative luminescence unit at 10^-9 M after 24 hrs by luciferase reporter gene assay (reference value: 100%); format: cell-based
Homo sapiens [8] = species on record: Homo sapiens; assay: Activation of Luc-fused NFkB (unknown origin) expressed in non-stimulated human THP1 cells assessed as relative luminescence unit at 10^-10 M after 24 hrs by luciferase reporter gene assay (reference value: 100%); format: cell-based
[9] = target: T1, N-formyl peptide receptor 2; assay: Agonist activity at ALX/FPR2 in human THP1 cells harboring NF-kB-Luc assessed as inhibition of LPS-induced NFkB signalling activation by measuring reduction in IL-6 secretion pretreated for 30 mins followed by LPS stimulation for 24 hrs by electrochemiluminescence assay; format: cell-based
Homo sapiens [10] = species on record: Homo sapiens; assay: Activation of Luc-fused NFkB (unknown origin) expressed in non-stimulated human THP1 cells assessed as relative luminescence unit at 10^-7 M after 24 hrs by luciferase reporter gene assay (reference value: 100%); format: cell-based
Homo sapiens [11] = species on record: Homo sapiens; assay: Activation of Luc-fused NFkB (unknown origin) expressed in non-stimulated human THP1 cells assessed as relative luminescence unit at 10^-12 M after 24 hrs by luciferase reporter gene assay (reference value: 100%); format: cell-based
Homo sapiens [12] = species on record: Homo sapiens; assay: Activation of Luc-fused NFkB (unknown origin) expressed in non-stimulated human THP1 cells assessed as relative luminescence unit at 10^-11 M after 24 hrs by luciferase reporter gene assay (reference value: 100%); format: cell-based
Homo sapiens [13] = species on record: Homo sapiens; assay: Activation of Luc-fused NFkB (unknown origin) expressed in non-stimulated human THP1 cells assessed as relative luminescence unit at 10^-8 M after 24 hrs by luciferase reporter gene assay (reference value: 100%); format: cell-based
THP-1 [14] = assay: Cytotoxicity against human THP1 cells harboring NFkB-Luc assessed as LDH release at 10'11 M after 24 hrs by spectrophotometric method relative to control; format: cell-based; details: thp-1, 24 h
THP-1 [15] = assay: Cytotoxicity against human THP1 cells harboring NFkB-Luc assessed as LDH release at 10'7 M after 24 hrs by spectrophotometric method relative to control; format: cell-based; details: thp-1, 24 h
THP-1 [16] = assay: Cytotoxicity against human THP1 cells harboring NFkB-Luc assessed as LDH release at 10'8 M after 24 hrs by spectrophotometric method relative to control; format: cell-based; details: thp-1, 24 h
HEK293 [17] = assay: Induction of intracellular calcium accumulation in HEK293 cells at 0.01 nM to 100 nM by Fluo-4 dye based fluorescence spectrophotometric assay; format: functional, cell-based; details: Homo sapiens
THP-1 [18] = assay: Cytotoxicity against human THP1 cells harboring NFkB-Luc assessed as LDH release at 10'6 M after 24 hrs by spectrophotometric method relative to control; format: cell-based; details: thp-1, 24 h
THP-1 [19] = assay: Cytotoxicity against human THP1 cells harboring NFkB-Luc assessed as LDH release at 10'10 M after 24 hrs by spectrophotometric method relative to control; format: cell-based; details: thp-1, 24 h
THP-1 [20] = assay: Cytotoxicity against human THP1 cells harboring NFkB-Luc assessed as LDH release at 10'9 M after 24 hrs by spectrophotometric method relative to control; format: cell-based; details: thp-1, 24 h
THP-1 [21] = assay: Cytotoxicity against human THP1 cells harboring NFkB-Luc assessed as LDH release at 10'12 M after 24 hrs by spectrophotometric method relative to control; format: cell-based; details: thp-1, 24 h
[22] = target: T2, N-formyl peptide receptor 2 (Homo sapiens) (UniProt P25090); assay: Agonist activity at ALX/FPR2 (unknown origin) expressed in HEK293 cells co-expressing Galphaq assessed as induction of intracellular calcium accumulation at 1 uM by Fluo-4 dye based fluorescence spectrophotometric assay; format: functional, cell-based
T2 sequence (whole entry): T1 sequence (P25090 whole entry)

HEK293 [23] = assay: Induction of intracellular calcium accumulation in HEK293 cells at 1 uM by Fluo-4 dye based fluorescence spectrophotometric assay; format: functional, cell-based; details: Homo sapiens
[24] = target: T2, N-formyl peptide receptor 2 (Homo sapiens); assay: Agonist activity at ALX/FPR2 (unknown origin) expressed in HEK293 cells co-expressing Galphaq assessed as induction of intracellular calcium accumulation at 2 nM by Fluo-4 dye based fluorescence spectrophotometric assay; format: functional, cell-based
HEK293 [25] = assay: Induction of intracellular calcium accumulation in HEK293 cells at 2 nM by Fluo-4 dye based fluorescence spectrophotometric assay; format: functional, cell-based; details: Homo sapiens
[26] = target: T2, N-formyl peptide receptor 2 (Homo sapiens); assay: Agonist activity at ALX/FPR2 in human THP1 cells harboring NF-kB-Luc assessed as inhibition of LPS-induced NFkB signalling activation by measuring IFNgamma secretion at 10^-12 M pretreated for 30 mins followed by LPS stimulation for 24 hrs by electrochemiluminescence assay (reference value: 100%); format: cell-based; parameters: scale not given: the % may be the effect or the level left
[27] = target: T2, N-formyl peptide receptor 2 (Homo sapiens); assay: Agonist activity at ALX/FPR2 in human THP1 cells harboring NF-kB-Luc assessed as inhibition of LPS-induced NFkB signalling activation by measuring NF-kB activation level at 10^-12 M pretreated for 30 mins followed by LPS stimulation for 24 hrs by luciferase reporter gene assay; format: cell-based; parameters: scale not given: the % may be the effect or the level left
[28] = target: T2, N-formyl peptide receptor 2 (Homo sapiens); assay: Agonist activity at ALX/FPR2 in human THP1 cells harboring NF-kB-Luc assessed as inhibition of LPS-induced NFkB signalling activation by measuring IL-1beta secretion at 10^-12 M pretreated for 30 mins followed by LPS stimulation for 24 hrs by electrochemiluminescence assay (reference value: 100%); format: cell-based; parameters: scale not given: the % may be the effect or the level left
[29] = target: T2, N-formyl peptide receptor 2 (Homo sapiens); assay: Agonist activity at ALX/FPR2 in human THP1 cells harboring NF-kB-Luc assessed as inhibition of LPS-induced NFkB signalling activation by measuring TNFalpha secretion at 10^-12 M pretreated for 30 mins followed by LPS stimulation for 24 hrs by electrochemiluminescence assay (reference value: 100%); format: cell-based; parameters: scale not given: the % may be the effect or the level left
[30] = target: T2, N-formyl peptide receptor 2 (Homo sapiens); assay: Agonist activity at ALX/FPR2 in human THP1 cells harboring NF-kB-Luc assessed as inhibition of LPS-induced NFkB signalling activation by measuring IL-6 secretion at 10^-12 M pretreated for 30 mins followed by LPS stimulation for 24 hrs by electrochemiluminescence assay (reference value: 100%); format: cell-based; parameters: scale not given: the % may be the effect or the level left
[31] = target: T2, N-formyl peptide receptor 2 (Homo sapiens); assay: Agonist activity at ALX/FPR2 in human THP1 cells harboring NF-kB-Luc assessed as inhibition of LPS-induced NFkB signalling activation by measuring IL-12p70 secretion at 10^-12 M pretreated for 30 mins followed by LPS stimulation for 24 hrs by electrochemiluminescence assay (reference value: 100%); format: cell-based; parameters: scale not given: the % may be the effect or the level left

SMILES	IC50 ([1]; read-out: IC50)	Activity (Homo sapiens [2])	IC50 [3]	IC50 ([4]; read-out: IC50)	IC50 ([5]; read-out: IC50)	IC50 ([6]; read-out: IC50)	Activity (Homo sapiens [7])	Activity (Homo sapiens [8])	IC50 ([9]; read-out: IC50)	Activity (Homo sapiens [10])	Activity (Homo sapiens [11])	Activity (Homo sapiens [12])	IC50 [1]	Activity (Homo sapiens [13])	IC50 [5]	IC50 [6]	IC50 [9]	other results
CCCCC[C@H](O)c1c(/C=C/[C@@H](O)[C@@H](O)CCCC(=O)OC)nc(C)n1C	2.6 nM	5.5%	25.3 nM	0.1 nM	3.4 nM	2.2 nM	4.6%	8.9%	60.6 nM	3.7%	5.2%	4.4%						
COC(=O)CCC[C@H](O)[C@H](O)/C=C/c1nc(C)n(C)c1[C@@H](C)O		9.6%	27.8 nM	3.8 nM			8.8%	9.3%		9.4%	9.7%	8.8%	Not Active	10.4%	Not Active	Not Active	Not Active	
CCC[C@H](O)c1c(/C=C/[C@@H](O)[C@@H](O)CCCC(=O)OC)nc(C)n1C	3.6 nM	1.3%	31.5 nM	6 nM		0.9 nM	1.7%	3.2%		1.4%	1.4%	1.9%		1.6%	Not Active		Not Active	
CCCCC[C@H](O)c1nc(-c2ccccc2)oc1/C=C/[C@@H](O)[C@@H](O)CCCC(=O)OC(C)C	3.2 nM	6.1%	69.6 nM	5.1 nM	6.7 nM	2.5 nM	5.3%	6.2%	31.4 nM	4%	6.2%	4.5%		4.3%				fold change (FC) (THP-1 [14]): 1.1; fold change (FC) (THP-1 [15]): 1; fold change (FC) (THP-1 [16]): 1; Activity (HEK293 [17]): inactive; fold change (FC) (THP-1 [18]): 1; fold change (FC) (THP-1 [19]): 1; fold change (FC) (THP-1 [20]): 0.9; fold change (FC) (THP-1 [21]): 1.1
COC(=O)CCC[C@H](O)[C@H](O)/C=C/c1nc(C)n(C)c1[C@H](C)O		2.4%	27.8 nM				3.4%	4.5%		3.5%	3.1%		Not Active		Not Active	Not Active	Not Active	IC50 [4]: Not Active
Nc1ncnc2c1ncn2[C@@H]1O[C@H](COP(=O)(O)OP(=O)(O)OP(=O)(O)O)[C@@H](O)[C@H]1O																		Activity [22]: Active; Activity (HEK293 [23]): Active
CCC[C@@H](O)c1c(/C=C/[C@@H](O)[C@@H](O)CCCC(=O)OC)nc(C)n1C	3.7 nM	0.9%	40.3 nM	3.4 nM	4.8 nM	4.3 nM	2.2%	1.8%	55.8 nM	1.4%	1.8%	1.6%						
CSCC[C@H](NC(=O)[C@@H](NC(=O)[C@H](CCSC)NC(=O)[C@H](Cc1ccc(O)cc1)NC(=O)[C@H](CCCCN)NC(=O)[C@@H](N)Cc1c[nH]c2ccccc12)C(C)C)C(=O)O																		Activity [24]: Active; Activity (HEK293 [25]): inactive
CCCCC[C@@H](O)c1nc(-c2ccccc2)oc1/C=C/[C@@H](O)[C@@H](O)CCCC(=O)OC(C)C		2.7%	37.3 nM		6.5 nM		2.7%	3.2%	6.8 nM	3%	3.4%	2.8%	Not Active	2.6%		Not Active		IC50 [4]: Not Active
CCCCC[C@@H](O)c1ccccc1/C=C/[C@@H](O)[C@@H](O)CCCC(=O)OC											2.9%							Activity [26]: 83.9%; Activity [27]: 80%; Activity [28]: 39.7%; Activity [29]: 64.2%; Activity [30]: 61.1%; Activity [31]: 62.9%; fold change (FC) (THP-1 [21]): 0.9
